Legend:
Type in all cases: functional
[1] = tested on: SK-MEL-5; test: Growth inhibition of human SK-MEL-5 cells assessed as cell growth at 100 uM incubated for 48 hrs by sulforhodamine B assay relative to control; conditions: read-out: Activity
[2] = tested on: TK-10; test: Growth inhibition of human TK-10 cells assessed as cell growth at 100 uM incubated for 48 hrs by sulforhodamine B assay relative to control; conditions: read-out: Activity
[3] = tested on: CAKI-1; test: Growth inhibition of human CAKI-1 cells assessed as cell growth at 100 uM incubated for 48 hrs by sulforhodamine B assay relative to control; conditions: read-out: Activity
[4] = tested on: HT-29; test: Growth inhibition of human HT-29 cells assessed as cell growth at 100 uM incubated for 48 hrs by sulforhodamine B assay relative to control; conditions: read-out: Activity
[5] = tested on: HCC 2998; test: Growth inhibition of human HCC 2998 cells assessed as cell growth at 100 uM incubated for 48 hrs by sulforhodamine B assay relative to control; conditions: read-out: Activity
[6] = tested on: NCI-H460; test: Growth inhibition of human NCI-H460 cells assessed as cell growth at 1 uM incubated for 48 hrs by sulforhodamine B assay relative to control; conditions: read-out: Activity
[7] = tested on: NCI-H23; test: Growth inhibition of human NCI-H23 cells incubated for 48 hrs by sulforhodamine B assay
[8] = tested on: NCI/ADR-RES; test: Growth inhibition of human NCI/ADR-RES cells assessed as cell growth at 0.1 uM incubated for 48 hrs by sulforhodamine B assay relative to control; conditions: read-out: Activity
[9] = tested on: A549; test: Growth inhibition of human A549/ATCC cells assessed as cell growth at 0.01 uM incubated for 48 hrs by sulforhodamine B assay relative to control; conditions: read-out: Activity
[10] = tested on: NCI-H23; test: Growth inhibition of human NCI-H23 cells assessed as cell growth at 0.01 uM incubated for 48 hrs by sulforhodamine B assay relative to control; conditions: read-out: Activity
[11] = tested on: Hs-578T; test: Growth inhibition of human Hs-578T cells assessed as cell growth at 0.01 uM incubated for 48 hrs by sulforhodamine B assay relative to control; conditions: read-out: Activity
[12] = tested on: T47D; test: Growth inhibition of human T47D cells assessed as cell growth at 0.01 uM incubated for 48 hrs by sulforhodamine B assay relative to control; conditions: read-out: Activity
[13] = tested on: SK-MEL-28; test: Growth inhibition of human SK-MEL-28 cells incubated for 48 hrs by sulforhodamine B assay
[14] = tested on: UACC-62; test: Growth inhibition of human UACC-62 cells assessed as cell growth at 100 uM incubated for 48 hrs by sulforhodamine B assay relative to control; conditions: read-out: Activity
[15] = tested on: NCI-H322M; test: Growth inhibition of human NCI-H322M cells assessed as cell growth at 100 uM incubated for 48 hrs by sulforhodamine B assay relative to control; conditions: read-out: Activity
[16] = tested on: EKVX; test: Growth inhibition of human EKVX cells assessed as cell growth at 100 uM incubated for 48 hrs by sulforhodamine B assay relative to control; conditions: read-out: Activity
[17] = tested on: SK-MEL-28; test: Growth inhibition of human SK-MEL-28 cells assessed as cell growth at 0.01 uM incubated for 48 hrs by sulforhodamine B assay relative to control; conditions: read-out: Activity
[18] = tested on: COLO 205; test: Growth inhibition of human COLO 205 cells assessed as cell growth at 1 uM incubated for 48 hrs by sulforhodamine B assay relative to control; conditions: read-out: Activity
[19] = tested on: SK-OV-3; test: Growth inhibition of human SK-OV-3 cells assessed as cell growth at 0.1 uM incubated for 48 hrs by sulforhodamine B assay relative to control; conditions: read-out: Activity
[20] = tested on: NCI-H322M; test: Growth inhibition of human NCI-H322M cells assessed as cell growth at 0.01 uM incubated for 48 hrs by sulforhodamine B assay relative to control; conditions: read-out: Activity
[21] = tested on: RXF 393; test: Growth inhibition of human RXF 393 cells assessed as cell growth at 0.01 uM incubated for 48 hrs by sulforhodamine B assay relative to control; conditions: read-out: Activity
[22] = tested on: NCI-H522; test: Growth inhibition of human NCI-H522 cells assessed as cell growth at 0.1 uM incubated for 48 hrs by sulforhodamine B assay relative to control; conditions: read-out: Activity
[23] = tested on: MDA-MB-468; test: Growth inhibition of human MDA-MB-468 cells assessed as cell growth at 100 uM incubated for 48 hrs by sulforhodamine B assay relative to control; conditions: read-out: Activity
[24] = tested on: M14; test: Growth inhibition of human M14 cells incubated for 48 hrs by sulforhodamine B assay
[25] = tested on: PC-3; test: Growth inhibition of human PC-3 cells assessed as cell growth at 1 uM incubated for 48 hrs by sulforhodamine B assay relative to control; conditions: read-out: Activity
[26] = tested on: UACC-257; test: Growth inhibition of human UACC-257 cells assessed as cell growth at 100 uM incubated for 48 hrs by sulforhodamine B assay relative to control; conditions: read-out: Activity
[27] = tested on: Malme-3M; test: Growth inhibition of human Malme-3M cells incubated for 48 hrs by sulforhodamine B assay
[28] = tested on: HCT-116; test: Growth inhibition of human HCT-116 cells assessed as cell growth at 100 uM incubated for 48 hrs by sulforhodamine B assay relative to control; conditions: read-out: Activity
[29] = tested on: OVCAR-3; test: Growth inhibition of human OVCAR-3 cells assessed as cell growth at 0.1 uM incubated for 48 hrs by sulforhodamine B assay relative to control; conditions: read-out: Activity
[30] = tested on: ACHN; test: Growth inhibition of human ACHN cells assessed as cell growth at 1 uM incubated for 48 hrs by sulforhodamine B assay relative to control; conditions: read-out: Activity
[31] = tested on: UACC-62; test: Growth inhibition of human UACC-62 cells incubated for 48 hrs by sulforhodamine B assay
[32] = tested on: U-251; test: Growth inhibition of human U-251 cells assessed as cell growth at 1 uM incubated for 48 hrs by sulforhodamine B assay relative to control; conditions: read-out: Activity
[33] = tested on: OVCAR-8; test: Growth inhibition of human OVCAR-8 cells assessed as cell growth at 0.1 uM incubated for 48 hrs by sulforhodamine B assay relative to control; conditions: read-out: Activity
[34] = tested on: NCI-H226; test: Growth inhibition of human NCI-H226 cells assessed as cell growth at 1 uM incubated for 48 hrs by sulforhodamine B assay relative to control; conditions: read-out: Activity
[35] = tested on: COLO 205; test: Growth inhibition of human COLO 205 cells incubated for 48 hrs by sulforhodamine B assay
[36] = read-out: LC50 (the source's name)
[37] = read-out: pLC50 (the source's name) (converted)

SMILES: CC(=O)Nc1cc(CO[Si](C)(C)C(C)(C)C)cc(NC(=O)c2ccc(C(=O)Nc3cccc(NC(=O)CCCN(C)C)c3)cc2)c1
- growth at 100 µM [1]: 73%
- growth at 100 µM [2]: 98%
- growth at 100 µM [3]: 77%
- growth at 100 µM [4]: 100%
- growth at 100 µM [5]: 93%
- growth at 1 µM [6]: 99%
- GI50 ([7]; read-out: GI50): > 75 µM
- CC50 [7, 36]: > 75 µM
- TGI ([7]; read-out: TGI): > 75 µM
- GI50 ([7]; read-out: pGI50 (converted)): > 75.9 µM
- CC50 [7, 37]: > 75.9 µM
- TGI ([7]; read-out: pTGI): > 75.9 µM
- growth at 0.1 µM [8]: 97%
- growth at 0.01 µM [9]: 99%
- growth at 0.01 µM [10]: 101%
- growth at 0.01 µM [11]: 99%
- growth at 0.01 µM [12]: 99%
- GI50 ([13]; read-out: GI50): > 75 µM
- LC50 (50% lethal concentration) ([13]; read-out: LC50): > 75 µM
- TGI ([13]; read-out: TGI): > 75 µM
- GI50 ([13]; read-out: pGI50 (converted)): > 75.9 µM
- LC50 (50% lethal concentration) ([13]; read-out: pLC50 (converted)): > 75.9 µM
- TGI ([13]; read-out: pTGI): > 75.9 µM
- growth at 100 µM [14]: 72%
- growth at 100 µM [15]: 74%
- growth at 100 µM [16]: 82%
- growth at 0.01 µM [17]: 98%
- growth at 1 µM [18]: 109%
- growth at 0.1 µM [19]: 98%
- growth at 0.01 µM [20]: 102%
- growth at 0.01 µM [21]: 101%
- growth at 0.1 µM [22]: 91%
- growth at 100 µM [23]: 103%
- GI50 ([24]; read-out: GI50): > 75 µM
- CC50 [24, 36]: > 75 µM
- TGI ([24]; read-out: TGI): > 75 µM
- GI50 ([24]; read-out: pGI50 (converted)): > 75.9 µM
- CC50 [24, 37]: > 75.9 µM
- TGI ([24]; read-out: pTGI): > 75.9 µM
- growth at 1 µM [25]: 105%
- growth at 100 µM [26]: 81%
- GI50 ([27]; read-out: GI50): 36.3 µM
- LC50 (concentration killing 50% of cells) ([27]; read-out: LC50): > 75 µM
- TGI ([27]; read-out: TGI): > 75 µM
- GI50 ([27]; read-out: pGI50 (converted)): 36.3 µM
- LC50 (concentration killing 50% of cells) ([27]; read-out: pLC50 (converted)): > 75.9 µM
- TGI ([27]; read-out: pTGI): > 75.9 µM
- growth at 100 µM [28]: 85%
- growth at 0.1 µM [29]: 109%
- growth at 1 µM [30]: 98%
- GI50 ([31]; read-out: GI50): > 75 µM
- CC50 [31, 36]: > 75 µM
- TGI ([31]; read-out: TGI): > 75 µM
- GI50 ([31]; read-out: pGI50 (converted)): > 75.9 µM
- CC50 [31, 37]: > 75.9 µM
- TGI ([31]; read-out: pTGI): > 75.9 µM
- growth at 1 µM [32]: 91%
- growth at 0.1 µM [33]: 97%
- growth at 1 µM [34]: 92%
- GI50 ([35]; read-out: GI50): > 75 µM
- LC50 ([35]; read-out: LC50): > 75 µM
- TGI ([35]; read-out: TGI): > 75 µM
- GI50 ([35]; read-out: pGI50 (converted)): > 75.9 µM
- LC50 ([35]; read-out: pLC50 (converted)): > 75.9 µM
- TGI ([35]; read-out: pTGI): > 75.9 µM
